Laboratory results taken from patent US4563476A, “Substituted 5-hydroxy-2,3-dihydrobenzofurans and analogs thereof useful as anti-inflammatory agents” (Merck & Co., Inc., priority 1983, dated 1986).

Key:
[1] = tested on: inflammatory responses elicited by topically applied phorbol myristate acetate (PMA) or topically applied arachidonic acid (AA); test: Topical mouse ear assay (TME), edema by wet weight; format: in vivo, mice; settings: PMA or AA not specified
Procedure: The topical mouse ear assay (TME) is the method by which the novel compounds of the present invention are evaluated for its effect on inflammatory responses elicited by topically applied phorbol myristate acetate (PMA) or topically applied arachidonic acid (AA). The inflammatory responses may be in the form of edema (measured by wet weight); vascular permeability (measured by ^125 I-BSA accumulation); or PMN infiltration (measured by myeloperoxidase activity).
Method: The right ears of mice (5 mice per group) were treated topically with either […] or 1000 μg AA alone or with the test compound in 25 μl of vehicle. The vehicle was water/pyridine/acetone (1:2:97). A control group of mice received the vehicle only. The mice were allowed food and water ad libitum during the treatment period; 2 hours for AA and 4 hours for PMA. The mice were sacrificed by cervical dislocation and a 6 mm diameter disc of tissue punched from both the treated and untreated ears. The tissue biopsies were immediately weighed and the weight increase of the treated ear relative to the weight of the untreated ear determined.
For the determination of vascular permeability, […] ^125 I-bovine serum albumin (^125 I-BSA) was administered in 0.5 ml phosphate buffered saline 15 min prior to the topical application. At the termination of the experiment, the amount of radioactivity in both the treated and untreated ear biopsies was determined and the increased amount of radioactivity in the treated tissue relative to the amount of radioactive in the untreated tissue determined.
As a measure of PMN infiltration, the amount of myeloperoxidase (MPO) activity in the same tissues was determined. The tissue biopsies were homogenized into 1 ml 0.5% hexadecyltrimethylammonium bromide and centrifuged for 45 min. at 1200×g. Aliquots 40 μl, of the supernatant phases were assayed for MPO activity by a colorimetric method devised by H. Dougherty for automated Titertek analysis. The MPO activity is expressed as the OD450 of the treated ear homogenate minus the OD450 of the non-treated ear homogenate.
All of the data are expressed as the mean ±SEM, N=5 mice/group.

[2] = tested on: inflammatory responses elicited by topically applied phorbol myristate acetate (PMA) or topically applied arachidonic acid (AA); settings: previously established; cited from earlier work

| Compound | Edema (% inhibition) ([1]; Dosage 50 μg) [%] | Edema (% inhibition) ([1]; Dosage 100 μg) [%] | Edema (% inhibition) ([1]; Dosage 200 μg) [%] | Edema (% inhibition) ([1]; Dosage 400 μg) [%] | activity in the topical mouse ear assay [2] |
| --- | --- | --- | --- | --- | --- |
| COc1ccc2c(c1)c(CC(=O)O)c(C)n2C(=O)c1ccc(Cl)cc1 [Indomethacin, indomethacin] | 24 | 42 | 46 | 85 | active |
| C[C@@H]1C[C@H]2[C@@H]3CCC4=CC(=O)C=C[C@]4(C)[C@@]3(F)[C@@H](O)C[C@]2(C)[C@@]1(O)C(=O)CO [dexamethasone] | – | – | – | – | active |
| CC(=O)c1ccc(NCc2cc3c(cc2O)CCO3)cc1 [A, 5-Hydroxy-6-(4-acetylphenyl)aminomethyl-2,3-dihydrobenzofuran] | 44 | 45 | 60 | 76 | – |
